Measurements as given in ChEMBL document CHEMBL6115030, “Systematic All-Hydrocarbon Stapling Analysis for Cecropin A Generates a Potent and Stable Antimicrobial Peptide” (J Med Chem, 2025).
Values after ≈ are worked out from the molar mass of the structure shown. Bridge positions count the residues as written; N and C are the ends. Square brackets hold non-standard residues; d marks the D form. Peptide text beside a SMILES is read from it. S5 = C=CCCC[C@](C)(N)C(=O)O

Experiments:
Format in all cases: functional
Staphylococcus aureus = assay: Antibacterial activity against Staphylococcus aureus ATCC 25923 assessed as inhibition of bacterial growth measured after 24 hrs by broth microdilution method
Klebsiella pneumoniae = assay: Antibacterial activity against Klebsiella pneumoniae ATCC 13883 assessed as inhibition of bacterial growth measured after 24 hrs by broth microdilution method
Pseudomonas aeruginosa = assay: Antibacterial activity against Pseudomonas aeruginosa PAO1 assessed as inhibition of bacterial growth measured after 24 hrs by broth microdilution method

Compound	MIC (Staphylococcus aureus) [µM]	MIC (Klebsiella pneumoniae) [µM]	MIC (Pseudomonas aeruginosa) [µM]
CC[C@H](C)[C@H](NC(=O)CNC(=O)[C@H](CC(=O)O)NC(=O)[C@H](CCCNC(=N)N)NC(=O)[C@]1(C)CCC/C=C\CCC[C@](C)(NC(=O)[C@H](CCCCN)NC(=O)[C@H](CCC(=O)O)NC(=O)[C@@H](NC(=O)[C@H](CCCCN)NC(=O)[C@H](CCCCN)NC(=O)[C@H](Cc2ccccc2)NC(=O)[C@H](CC(C)C)NC(=O)[C@H](CCCCN)NC(=O)[C@H](Cc2c[nH]c3ccccc23)NC(=O)[C@H](CCCCN)NC(C)=O)[C@@H](C)CC)C(=O)NCC(=O)N[C@@H](CCC(N)=O)C(=O)N[C@@H](CC(N)=O)C(=O)N1)C(=O)N[C@H](C(=O)N[C@@H](CCCCN)C(=O)N[C@@H](C)C(=O)NCC(=O)N1CCC[C@H]1C(=O)N[C@@H](C)C(=O)N[C@H](C(=O)N[C@@H](C)C(=O)N[C@H](C(=O)N[C@H](C(=O)NCC(=O)N[C@@H](CCC(N)=O)C(=O)N[C@@H](C)C(=O)N[C@H](C(=O)N[C@@H](CCC(N)=O)C(=O)N[C@H](C(=O)N[C@@H](C)C(=O)N[C@@H](CCCCN)C(N)=O)[C@@H](C)CC)[C@@H](C)O)C(C)C)C(C)C)C(C)C)[C@@H](C)CC (Ac-KWKLFKKIEK[S5]GQN[S5]RDGIIKAGPAVAVVGQATQIAK-NH2; staple (Z) 11-15)	25 (≈ 102 µg/mL)	6.25 (≈ 25.5 µg/mL)	80 (≈ 327 µg/mL)
CC[C@H](C)[C@H](NC(=O)CNC(=O)[C@H](CC(=O)O)NC(=O)[C@H](CCCNC(=N)N)NC(=O)[C@@H](NC(=O)[C@]1(C)CCC/C=C\CCC[C@](C)(NC(=O)[C@H](CCC(=O)O)NC(=O)[C@@H](NC(=O)[C@H](CCCCN)NC(=O)[C@H](CCCCN)NC(=O)[C@H](Cc2ccccc2)NC(=O)[C@H](CC(C)C)NC(=O)[C@H](CCCCN)NC(=O)[C@H](Cc2c[nH]c3ccccc23)NC(=O)[C@H](CCCCN)NC(C)=O)[C@@H](C)CC)C(=O)N[C@@H](C(C)C)C(=O)NCC(=O)N[C@@H](CCC(N)=O)C(=O)N1)[C@@H](C)CC)C(=O)N[C@H](C(=O)N[C@@H](CCCCN)C(=O)N[C@@H](C)C(=O)NCC(=O)N1CCC[C@H]1C(=O)N[C@@H](C)C(=O)N[C@H](C(=O)N[C@@H](C)C(=O)N[C@H](C(=O)N[C@H](C(=O)NCC(=O)N[C@@H](CCC(N)=O)C(=O)N[C@@H](C)C(=O)N[C@H](C(=O)N[C@@H](CCC(N)=O)C(=O)N[C@H](C(=O)N[C@@H](C)C(=O)N[C@@H](CCCCN)C(N)=O)[C@@H](C)CC)[C@@H](C)O)C(C)C)C(C)C)C(C)C)[C@@H](C)CC (Ac-KWKLFKKIE[S5]VGQ[S5]IRDGIIKAGPAVAVVGQATQIAK-NH2; staple (Z) 10-14)	> 100	> 100	> 100
CC[C@H](C)[C@H](NC(=O)CNC(=O)[C@H](CC(=O)O)NC(=O)[C@H](CCCNC(=N)N)NC(=O)[C@@H](NC(=O)[C@H](CC(N)=O)NC(=O)[C@]1(C)CCC/C=C\CCC[C@](C)(NC(=O)[C@@H](NC(=O)[C@H](CCCCN)NC(=O)[C@H](CCCCN)NC(=O)[C@H](Cc2ccccc2)NC(=O)[C@H](CC(C)C)NC(=O)[C@H](CCCCN)NC(=O)[C@H](Cc2c[nH]c3ccccc23)NC(=O)[C@H](CCCCN)NC(C)=O)[C@@H](C)CC)C(=O)N[C@@H](CCCCN)C(=O)N[C@@H](C(C)C)C(=O)NCC(=O)N1)[C@@H](C)CC)C(=O)N[C@H](C(=O)N[C@@H](CCCCN)C(=O)N[C@@H](C)C(=O)NCC(=O)N1CCC[C@H]1C(=O)N[C@@H](C)C(=O)N[C@H](C(=O)N[C@@H](C)C(=O)N[C@H](C(=O)N[C@H](C(=O)NCC(=O)N[C@@H](CCC(N)=O)C(=O)N[C@@H](C)C(=O)N[C@H](C(=O)N[C@@H](CCC(N)=O)C(=O)N[C@H](C(=O)N[C@@H](C)C(=O)N[C@@H](CCCCN)C(N)=O)[C@@H](C)CC)[C@@H](C)O)C(C)C)C(C)C)C(C)C)[C@@H](C)CC (Ac-KWKLFKKI[S5]KVG[S5]NIRDGIIKAGPAVAVVGQATQIAK-NH2; staple (Z) 9-13)	1.56 (≈ 6.3 µg/mL)	6.25 (≈ 25.2 µg/mL)	> 100
CC[C@H](C)[C@H](NC(=O)CNC(=O)[C@H](CC(=O)O)NC(=O)[C@H](CCCNC(=N)N)NC(=O)[C@@H](NC(=O)[C@H](CC(N)=O)NC(=O)[C@H](CCC(N)=O)NC(=O)[C@]1(C)CCC/C=C\CCC[C@](C)(NC(=O)[C@H](CCCCN)NC(=O)[C@H](CCCCN)NC(=O)[C@H](Cc2ccccc2)NC(=O)[C@H](CC(C)C)NC(=O)[C@H](CCCCN)NC(=O)[C@H](Cc2c[nH]c3ccccc23)NC(=O)[C@H](CCCCN)NC(C)=O)C(=O)N[C@@H](CCC(=O)O)C(=O)N[C@@H](CCCCN)C(=O)N[C@@H](C(C)C)C(=O)N1)[C@@H](C)CC)C(=O)N[C@H](C(=O)N[C@@H](CCCCN)C(=O)N[C@@H](C)C(=O)NCC(=O)N1CCC[C@H]1C(=O)N[C@@H](C)C(=O)N[C@H](C(=O)N[C@@H](C)C(=O)N[C@H](C(=O)N[C@H](C(=O)NCC(=O)N[C@@H](CCC(N)=O)C(=O)N[C@@H](C)C(=O)N[C@H](C(=O)N[C@@H](CCC(N)=O)C(=O)N[C@H](C(=O)N[C@@H](C)C(=O)N[C@@H](CCCCN)C(N)=O)[C@@H](C)CC)[C@@H](C)O)C(C)C)C(C)C)C(C)C)[C@@H](C)CC (Ac-KWKLFKK[S5]EKV[S5]QNIRDGIIKAGPAVAVVGQATQIAK-NH2; staple (Z) 8-12)	6.25 (≈ 25.8 µg/mL)	6.25 (≈ 25.8 µg/mL)	> 100
CC[C@H](C)[C@H](NC(=O)CNC(=O)[C@H](CC(=O)O)NC(=O)[C@H](CCCNC(=N)N)NC(=O)[C@@H](NC(=O)[C@H](CC(N)=O)NC(=O)[C@H](CCC(N)=O)NC(=O)CNC(=O)[C@]1(C)CCC/C=C\CCC[C@](C)(NC(=O)[C@H](CCCCN)NC(=O)[C@H](Cc2ccccc2)NC(=O)[C@H](CC(C)C)NC(=O)[C@H](CCCCN)NC(=O)[C@H](Cc2c[nH]c3ccccc23)NC(=O)[C@H](CCCCN)NC(C)=O)C(=O)N[C@@H]([C@@H](C)CC)C(=O)N[C@@H](CCC(=O)O)C(=O)N[C@@H](CCCCN)C(=O)N1)[C@@H](C)CC)C(=O)N[C@H](C(=O)N[C@@H](CCCCN)C(=O)N[C@@H](C)C(=O)NCC(=O)N1CCC[C@H]1C(=O)N[C@@H](C)C(=O)N[C@H](C(=O)N[C@@H](C)C(=O)N[C@H](C(=O)N[C@H](C(=O)NCC(=O)N[C@@H](CCC(N)=O)C(=O)N[C@@H](C)C(=O)N[C@H](C(=O)N[C@@H](CCC(N)=O)C(=O)N[C@H](C(=O)N[C@@H](C)C(=O)N[C@@H](CCCCN)C(N)=O)[C@@H](C)CC)[C@@H](C)O)C(C)C)C(C)C)C(C)C)[C@@H](C)CC (Ac-KWKLFK[S5]IEK[S5]GQNIRDGIIKAGPAVAVVGQATQIAK-NH2; staple (Z) 7-11)	> 100	6.25 (≈ 25.4 µg/mL)	> 100
CC[C@H](C)[C@H](NC(=O)CNC(=O)[C@H](CC(=O)O)NC(=O)[C@H](CCCNC(=N)N)NC(=O)[C@@H](NC(=O)[C@H](CC(N)=O)NC(=O)[C@H](CCC(N)=O)NC(=O)CNC(=O)[C@@H](NC(=O)[C@]1(C)CCC/C=C\CCC[C@](C)(NC(=O)[C@H](Cc2ccccc2)NC(=O)[C@H](CC(C)C)NC(=O)[C@H](CCCCN)NC(=O)[C@H](Cc2c[nH]c3ccccc23)NC(=O)[C@H](CCCCN)NC(C)=O)C(=O)N[C@@H](CCCCN)C(=O)N[C@@H]([C@@H](C)CC)C(=O)N[C@@H](CCC(=O)O)C(=O)N1)C(C)C)[C@@H](C)CC)C(=O)N[C@H](C(=O)N[C@@H](CCCCN)C(=O)N[C@@H](C)C(=O)NCC(=O)N1CCC[C@H]1C(=O)N[C@@H](C)C(=O)N[C@H](C(=O)N[C@@H](C)C(=O)N[C@H](C(=O)N[C@H](C(=O)NCC(=O)N[C@@H](CCC(N)=O)C(=O)N[C@@H](C)C(=O)N[C@H](C(=O)N[C@@H](CCC(N)=O)C(=O)N[C@H](C(=O)N[C@@H](C)C(=O)N[C@@H](CCCCN)C(N)=O)[C@@H](C)CC)[C@@H](C)O)C(C)C)C(C)C)C(C)C)[C@@H](C)CC (Ac-KWKLF[S5]KIE[S5]VGQNIRDGIIKAGPAVAVVGQATQIAK-NH2; staple (Z) 6-10)	> 100	> 100	> 100
CC[C@H](C)[C@H](NC(=O)CNC(=O)[C@H](CC(=O)O)NC(=O)[C@H](CCCNC(=N)N)NC(=O)[C@@H](NC(=O)[C@H](CC(N)=O)NC(=O)[C@H](CCC(N)=O)NC(=O)CNC(=O)[C@@H](NC(=O)[C@H](CCCCN)NC(=O)[C@]1(C)CCC/C=C\CCC[C@](C)(NC(=O)[C@H](CC(C)C)NC(=O)[C@H](CCCCN)NC(=O)[C@H](Cc2c[nH]c3ccccc23)NC(=O)[C@H](CCCCN)NC(C)=O)C(=O)N[C@@H](CCCCN)C(=O)N[C@@H](CCCCN)C(=O)N[C@@H]([C@@H](C)CC)C(=O)N1)C(C)C)[C@@H](C)CC)C(=O)N[C@H](C(=O)N[C@@H](CCCCN)C(=O)N[C@@H](C)C(=O)NCC(=O)N1CCC[C@H]1C(=O)N[C@@H](C)C(=O)N[C@H](C(=O)N[C@@H](C)C(=O)N[C@H](C(=O)N[C@H](C(=O)NCC(=O)N[C@@H](CCC(N)=O)C(=O)N[C@@H](C)C(=O)N[C@H](C(=O)N[C@@H](CCC(N)=O)C(=O)N[C@H](C(=O)N[C@@H](C)C(=O)N[C@@H](CCCCN)C(N)=O)[C@@H](C)CC)[C@@H](C)O)C(C)C)C(C)C)C(C)C)[C@@H](C)CC (Ac-KWKL[S5]KKI[S5]KVGQNIRDGIIKAGPAVAVVGQATQIAK-NH2; staple (Z) 5-9)	1.56 (≈ 6.27 µg/mL)	6.25 (≈ 25.1 µg/mL)	> 100
CC[C@H](C)[C@H](NC(=O)CNC(=O)[C@H](CC(=O)O)NC(=O)[C@H](CCCNC(=N)N)NC(=O)[C@@H](NC(=O)[C@H](CC(N)=O)NC(=O)[C@H](CCC(N)=O)NC(=O)CNC(=O)[C@@H](NC(=O)[C@H](CCCCN)NC(=O)[C@H](CCC(=O)O)NC(=O)[C@]1(C)CCC/C=C\CCC[C@](C)(NC(=O)[C@H](CCCCN)NC(=O)[C@H](Cc2c[nH]c3ccccc23)NC(=O)[C@H](CCCCN)NC(C)=O)C(=O)N[C@@H](Cc2ccccc2)C(=O)N[C@@H](CCCCN)C(=O)N[C@@H](CCCCN)C(=O)N1)C(C)C)[C@@H](C)CC)C(=O)N[C@H](C(=O)N[C@@H](CCCCN)C(=O)N[C@@H](C)C(=O)NCC(=O)N1CCC[C@H]1C(=O)N[C@@H](C)C(=O)N[C@H](C(=O)N[C@@H](C)C(=O)N[C@H](C(=O)N[C@H](C(=O)NCC(=O)N[C@@H](CCC(N)=O)C(=O)N[C@@H](C)C(=O)N[C@H](C(=O)N[C@@H](CCC(N)=O)C(=O)N[C@H](C(=O)N[C@@H](C)C(=O)N[C@@H](CCCCN)C(N)=O)[C@@H](C)CC)[C@@H](C)O)C(C)C)C(C)C)C(C)C)[C@@H](C)CC (Ac-KWK[S5]FKK[S5]EKVGQNIRDGIIKAGPAVAVVGQATQIAK-NH2; staple (Z) 4-8)	25 (≈ 102 µg/mL)	6.25 (≈ 25.4 µg/mL)	> 100
